Molecules are shown by their SMILES.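 Grown in 96-well plates, cells were treated for 48 hours with each compound at five concentrations. Insufficient inhibition: endpoint recorded as highest concentration tested. At the GI50, growth is halved.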 Calls of active or inactive are those of the source. Rule as the data show it: active = GI50 up to about 1.1 µM and inactive = higher.

Experimental findings from ChEMBL document CHEMBL1201862, “PubChem BioAssay data set” (2004) are described below.

Some test systems named below: 786-0; ACHN; CCRF-CEM; COLO 205; DU-145; HCT-116; HL-60; HOP-92; K562; KM12; Malme-3M; NCI-H460; OVCAR-3; RPMI-8226; SF-539; SK-MEL-5; SK-OV-3; SNB-19; TK-10; UO-31.
Assay in all cases: NCI anticancer screen, dose series, 48 h

In the case of `NC(=O)C1=CC2C3C=CC2(O)C(=O)OC3O1` (stereo not given), the GI50 in the assay with 786-0 was 3.63 µM (inactive); in the assay with ACHN it was 3.44 µM (inactive); in the assay on CCRF-CEM, 1.8 µM (inactive); in the assay with COLO 205, 3.71 µM (inactive); with DU-145 it was 3.89 µM (inactive); with HCT-116, 2.62 µM (inactive). Moreover, the GI50 in the assay on HL-60 was 1.5 µM (inactive); with HOP-92, 2.43 µM (inactive); in the assay with K562, 7.29 µM (inactive); in the assay with KM12 it was 2.94 µM (inactive); with Malme-3M, 1.82 µM (inactive); in the assay on NCI-H460, 17.9 µM (inactive). Besides, the GI50 was 2.43 µM (inactive) in the assay with OVCAR-3; 1.57 µM (inactive) in the assay with RPMI-8226; 3.56 µM (inactive) with SF-539; 2.38 µM (inactive) in the assay on SK-MEL-5; 13.5 µM (inactive) in the assay with SK-OV-3; 13.1 µM (inactive) with SNB-19. In addition, the GI50 in the assay on TK-10 was 4.07 µM (inactive); in the assay with UO-31, 3.67 µM (inactive).

On to `OC1c2c(ccc3c2CCC3)CC12Cc1ccccc1C2` (stereo not given), for which the GI50 in the assay with 786-0 was 17.1 µM (inactive); in the assay with ACHN it was 16.8 µM (inactive); in the assay with CCRF-CEM, 23.2 µM (inactive); in the assay on COLO 205 it was 16.3 µM (inactive); with DU-145, 16.3 µM (inactive); with HCT-116, 16 µM (inactive). For the same compound, the GI50 is 15.9 µM (inactive) in the assay on HL-60; 13 µM (inactive) in the assay with HOP-92; 17.1 µM (inactive) in the assay on K562; 14.9 µM (inactive) in the assay on KM12; 12 µM (inactive) with Malme-3M; 17.1 µM (inactive) with NCI-H460. Besides, the GI50 in the assay on OVCAR-3 was 13.6 µM (inactive); in the assay with RPMI-8226, 14.7 µM (inactive); in the assay with SF-539 it was 21.3 µM (inactive); in the assay on SK-MEL-5, 15.6 µM (inactive); with SK-OV-3, 15.7 µM (inactive); in the assay on SNB-19, 15.7 µM (inactive). For the same compound, the GI50 with TK-10 was 14.8 µM (inactive); with UO-31, 14.2 µM (inactive).

As for `c1ccc(-c2c[nH]c(SC(c3ccccc3)c3ccccc3)n2)cc1`, the GI50 was 32.1 µM (inactive) with 786-0; 24.5 µM (inactive) in the assay on ACHN; 19.3 µM (inactive) with CCRF-CEM; 13 µM (inactive) with COLO 205; 23.4 µM (inactive) with DU-145; 12.7 µM (inactive) in the assay with HCT-116. Moreover, the GI50 with HL-60 was 11.1 µM (inactive); in the assay on HOP-92, 9.51 µM (inactive); in the assay on K562 it was 12.7 µM (inactive); in the assay with KM12, 16.8 µM (inactive); with Malme-3M it was 15 µM (inactive); in the assay on NCI-H460, 10.2 µM (inactive). In addition, the GI50 is 33.4 µM (inactive) with OVCAR-3; 10.8 µM (inactive) with RPMI-8226; 30.4 µM (inactive) with SF-539; 12.4 µM (inactive) with SK-MEL-5; 46.9 µM (inactive) with SK-OV-3; 38 µM (inactive) with SNB-19. Further, the results for the GI50 in the assay with TK-10 and with UO-31 were 21.1 µM (inactive) and 29.6 µM (inactive), respectively.

`O=C1CC2OCC=C3CN4CCC56c7ccccc7N1C5C2C3CC46O` (stereo not given): the GI50 in the assay with 786-0, in the assay with ACHN, with CCRF-CEM, in the assay on COLO 205, with DU-145 and with HCT-116 was > 100 µM (inactive) throughout. For the same compound, the GI50 with HL-60, in the assay on HOP-92, with K562, in the assay on KM12, in the assay on Malme-3M and with NCI-H460 was > 100 µM (inactive) in each case. Besides, the GI50 with OVCAR-3, in the assay with RPMI-8226, in the assay on SF-539, with SK-MEL-5, in the assay on SK-OV-3 and with SNB-19 was > 100 µM (inactive) each time. Further, the GI50 in the assay on TK-10 and in the assay with UO-31 was > 100 µM (inactive) each time.

As to `COc1cc(C2S/C(=C/c3ccccc3)C(=O)N2c2ccc([N+](=O)[O-])cc2)cc(OC)c1OC` (stereo not given), the GI50 in the assay with 786-0 was > 100 µM (inactive); in the assay on ACHN, > 21 µM (inactive); in the assay on CCRF-CEM it was 32.6 µM (inactive); in the assay on COLO 205, 26.1 µM (inactive); in the assay on DU-145, > 41.2 µM (inactive); in the assay with HCT-116, > 64.9 µM (inactive). For the same compound, the GI50 in the assay on HL-60 is 40.6 µM (inactive); in the assay with HOP-92, > 100 µM (inactive); in the assay on K562, 3.68 µM (inactive); with KM12, 28.6 µM (inactive); with Malme-3M it was > 100 µM (inactive); in the assay on NCI-H460, 48 µM (inactive). The GI50 with OVCAR-3 was > 78 µM (inactive); in the assay on RPMI-8226, > 57.7 µM (inactive); in the assay on SF-539, > 100 µM (inactive); in the assay on SK-MEL-5, 25.6 µM (inactive); in the assay with SK-OV-3, > 100 µM (inactive); in the assay on SNB-19, > 100 µM (inactive). The GI50 with TK-10 was > 100 µM (inactive); with UO-31, 47 µM (inactive).

For `CC1(C)CC(=O)c2c(nc(SSc3nc4c(c(-c5ccc(Br)cc5)c3C#N)C(=O)CC(C)(C)C4)c(C#N)c2-c2ccc(Br)cc2)C1`, the GI50 in the assay on 786-0, with ACHN, with CCRF-CEM, with COLO 205, with DU-145 and with HCT-116 was > 10 µM (inactive) in each case. Further, the GI50 with HL-60, in the assay with HOP-92, with K562, in the assay on KM12, in the assay with Malme-3M and in the assay with NCI-H460 was > 10 µM (inactive) each time. Further, the GI50 in the assay with OVCAR-3, in the assay on RPMI-8226, in the assay on SF-539, in the assay with SK-MEL-5, in the assay on SK-OV-3 and with SNB-19 was > 10 µM (inactive) in each case. In addition, the GI50 with TK-10 and in the assay with UO-31 was > 10 µM (inactive) each time.

Take `C(=C\c1ccccc1)/C=N/c1nc2cc3sc(/N=C/C=C/c4ccccc4)nc3cc2s1`: the GI50 was > 100 µM (inactive) in the assay with 786-0; > 55.8 µM (inactive) in the assay on ACHN; 8.47 µM (inactive) in the assay with CCRF-CEM; 1.06 µM (active) with COLO 205; > 100 µM (inactive) in the assay on DU-145; 28.5 µM (inactive) in the assay with HCT-116. Moreover, the GI50 is 12.1 µM (inactive) in the assay with HL-60; > 100 µM (inactive) in the assay with HOP-92; 43.3 µM (inactive) in the assay with K562; 76.2 µM (inactive) in the assay on KM12; > 100 µM (inactive) in the assay with Malme-3M; 4.16 µM (inactive) in the assay on NCI-H460. Also, the GI50 was 24.3 µM (inactive) with OVCAR-3; > 87.7 µM (inactive) with RPMI-8226; > 100 µM (inactive) in the assay with SF-539; > 28.9 µM (inactive) in the assay on SK-MEL-5; > 100 µM (inactive) in the assay on SK-OV-3; > 100 µM (inactive) in the assay with SNB-19. For the same compound, the GI50 in the assay on TK-10 is > 88.9 µM (inactive); in the assay with UO-31, 34.4 µM (inactive).

Regarding `CCC(=O)C(CCN1CCC2(CCCc3ccccc32)CC1)(c1ccccc1)c1ccccc1`, the GI50 is 2.12 µM (inactive) in the assay on 786-0; 2.85 µM (inactive) with ACHN; 1.78 µM (inactive) in the assay on CCRF-CEM; 1.34 µM (inactive) in the assay with COLO 205; 3.1 µM (inactive) with DU-145; 1.42 µM (inactive) in the assay with HCT-116. In addition, the GI50 in the assay with HL-60 is 1.57 µM (inactive); in the assay on HOP-92, 1.47 µM (inactive); with K562 it was 1.8 µM (inactive); with KM12, 1.79 µM (inactive); with Malme-3M, 1.91 µM (inactive); with NCI-H460, 2.52 µM (inactive). Also, the GI50 in the assay with OVCAR-3 is 2.2 µM (inactive); in the assay on RPMI-8226 it was 0.622 µM (active); in the assay with SF-539 it was 2.95 µM (inactive); in the assay on SK-MEL-5, 1.49 µM (inactive); with SK-OV-3, 3.19 µM (inactive); in the assay with SNB-19, 4.75 µM (inactive). Besides, the GI50 in the assay with TK-10 is 3.77 µM (inactive); in the assay on UO-31, 2.39 µM (inactive).

Turning to `Cc1ccc(S(=O)(=O)N/C(=N\O)Nc2ccc(Cl)c(Cl)c2)cc1`, the GI50 was 4.6 µM (inactive) with 786-0; 11.9 µM (inactive) in the assay on ACHN; 2.42 µM (inactive) with CCRF-CEM; 17.1 µM (inactive) in the assay on COLO 205; 12 µM (inactive) with DU-145; 5.31 µM (inactive) in the assay on HCT-116. Further, the GI50 with HL-60 was 1.87 µM (inactive); with HOP-92, 3.05 µM (inactive); in the assay on K562 it was 13 µM (inactive); in the assay on KM12, 11.2 µM (inactive); in the assay with Malme-3M it was 2.07 µM (inactive); with NCI-H460, 9.95 µM (inactive). Moreover, the GI50 is 4.41 µM (inactive) in the assay with OVCAR-3; 10.1 µM (inactive) in the assay with RPMI-8226; 12.1 µM (inactive) in the assay with SF-539; 2.05 µM (inactive) with SK-MEL-5; 15 µM (inactive) in the assay with SK-OV-3; 7.4 µM (inactive) in the assay on SNB-19. Further, the GI50 is 14.6 µM (inactive) with TK-10 and 5.02 µM (inactive) in the assay on UO-31.

For the compound `CC(C)(C)c1ccc(-c2nc3ccc([N+](=O)[O-])cc3c(=O)o2)cc1`, the GI50 in the assay on 786-0 was 26.8 µM (inactive); with ACHN, 21.9 µM (inactive); in the assay on CCRF-CEM, 20.1 µM (inactive); with COLO 205 it was 24.4 µM (inactive); in the assay on DU-145, 32.7 µM (inactive); in the assay with HCT-116, 23.4 µM (inactive). In addition, the GI50 with HL-60 is 25.5 µM (inactive); in the assay with HOP-92, 15.6 µM (inactive); with K562, 19.1 µM (inactive); in the assay on KM12 it was 20 µM (inactive); in the assay on Malme-3M, 28.9 µM (inactive); in the assay on NCI-H460, 36.4 µM (inactive). The GI50 is 27.4 µM (inactive) in the assay with OVCAR-3; 30.9 µM (inactive) in the assay with RPMI-8226; 17.1 µM (inactive) in the assay on SF-539; 27.2 µM (inactive) in the assay on SK-MEL-5; 31.5 µM (inactive) in the assay with SK-OV-3; 21.5 µM (inactive) in the assay on SNB-19. Further, the GI50 in the assay on TK-10 is 38.8 µM (inactive); with UO-31, 32.9 µM (inactive).
